# Patent US20110256241A1, “METHODS AND COMPOSITIONS FOR THE TREATMENT OF CANCER” (TRASLATIONAL CANCER DRUGS PHARMA, S.L., priority 2008, published 2011)
# pIC 50: −log10 of the molar value. Like-named read-outs stand apart in the source and are kept apart here.
# How the values were obtained:
# H460 cells = assay: Cell proliferation assay (MTT); assay type: cell-based, human; conditions: then ChoK inhibitor, read-out: IC50 (72 h)
# Description: All cell lines used in this study were maintained under standard conditions of temperature (37° C.), humidity (95%), and carbon dioxide (5%). Human primary bronchial epithelial cells, NHBE (BEC) (Cambrex, CC-2541) were grown in BEGM (Bronchial Epithelial cell growth media) BulletKit (Cambrex, CC-3170). Human primary mammary epithelial cells, HMEC (Clonetics, CC-2551) were grown in MEBM medium supplemented with a bullet kit (Clonetics, CC-3150). Epithelial non-small lung cancer cells H460 and H1299, and small cell lung cancer cell lines H510 and H82 were maintained in RPMI supplemented with 10% Fetal Bovine Serum (FBS) (Life Technologies, Grand Island, N.Y.).
# Cells were seeded on 96-well plates (BD, Falcon, Bioscience, San Jose, Calif., USA) at a density of 6000 cells/well, and incubated for 24 h under standard conditions. Then, cells were treated with different concentrations of the ChoK inhibitors (quadruplicates of each concentration) and maintained for 72 hours. […] Absorbance is read at 595 nm in a VersaMax Microplate Reader (Molecular Devices, Sunnyvale, Calif., USA). For sensitization with acid ceramidase inhibitor, cells were pre-treated […] with the correspondent IC50 for NOE before treatment with ChoK inhibitors. NOE (N-Oleoyl ethanolamine) was obtained from Calbiochem (La Jolla, Calif., USA).
# Thus, disruption in the levels of acid ceramidase may allow ChoK inhibitors to have a better effect in these cells. To verify this hypothesis, we used the previously characterized acid ceramidase inhibitor, N-Oleoylethanolamine (NOE) (Grijalvo S., Chem Phys Lipids. 2006; 144:69-84), to investigate if the inhibition of acid ceramidase sensitizes tumour cell lines to ChoK inhibitors. To that end, H460 cells were pre-treated with NOE for three hours to inhibit acid ceramidase.
# H460 cells were pre-treated with these compounds for three hours to inhibit ceramidases. […] Furthermore, the combined use of ChoK inhibitors and acid ceramidase inhibitors provides a further stronger anticancer activity.
# [1] = system: primary cultures of tumours of patients with NSCLC; assay: Primary cultures of NSCLC tumours, crystal violet quantification; assay type: cell-based, human; conditions: primary NSCLC tumour cultures, 0-20 μM, 10 days
# Description: Resected tissues from NSCLC patients were dissociated (Cell dissociation sieve-tissued grinder Kit CD1, SIGMA), and the obtained cells were seeded in 24 well plates (BD, Falcon, Bioscience, San Jose, Calif., USA). […] The final persistent population in each well was quantified by the method of Cristal Violet as previously described (Rodríguez-González, A. et al., Oncogene, 22:8803-8812). […]
Compound,"pIC 50 (H460 cells; Homo sapiens, NCI-H460, combinations: pre-treated with ceramidase inhibitor for three hours)",pIC 50 (H460 cells; combinations: pre-treated with ceramidase inhibitor for three hours),RESISTANT (number of samples) [1],SENSITIVES (number of samples) [1]
"CCCCCCCCCCCCCC(=O)N[C@H](CO)[C@H](O)c1ccc([N+](=O)[O-])cc1 [CAY, (1R,2R)-N-myristoylamino-4′-nitro-phenylpropandio1-1,3, reference compound]",4.55,–,–,–
"CCCCCCCCCCCCCC(=O)N[C@H](C)[C@@H](O)c1ccccc1 [DEM, (1S,2R)-N-myristoylamino-phenylpropanol-1, reference compound]",–,4.51,–,–
"Nc1ccn([C@@H]2O[C@H](CO)[C@@H](O)C2(F)F)c(=O)n1 [Gemcitabine, gemcitabine]",–,–,34,18
CC(=O)O[C@H]1C(=O)[C@@]2(C)[C@H]([C@H](OC(=O)c3ccccc3)[C@]3(O)C[C@H](OC(=O)[C@H](O)[C@@H](NC(=O)c4ccccc4)c4ccccc4)C(C)=C1C3(C)C)[C@]1(OC(C)=O)CO[C@@H]1C[C@@H]2O [Taxol],–,–,35,27
"CCC1=C[C@@H]2CN(C1)Cc1c([nH]c3ccccc13)[C@@](C(=O)OC)(c1cc3c(cc1OC)N(C)[C@H]1[C@@](O)(C(=O)OC)[C@H](OC(C)=O)[C@]4(CC)C=CCN5CC[C@]31[C@@H]54)C2 [Vinolrelbine, vinorelbine]",–,–,24,15
